The results in this text go back to patent US20210355104A1, “ADENOSINE RECEPTOR BINDING COMPOUNDS” (Nikang Therapeuticsm Inc., priority 2018, published 2021).

For test [1], the system named is p-CREB (phosphorylated cAMP response-element binding protein) in human whole blood. The experiment in a line: p-CREB assay in human whole blood by flow cytometry (NECA stimulation, CD4 staining). In kind it is cell-based. The procedure:
Assay protocol for p-CREB (phosphorylated cAMP response-element binding protein) in human whole blood by flow cytometry
Fresh human whole blood (Biological Specialty Corporation) was added at 100 ul per wellinto a 96-well plate and treated with test compounds (Serial dilutions of 1:3 with starting concentration at 30 uM, 11 concentrations total, in the presence of adenosine deaminase) for one hour at room temperature on a plate shaker. Then 10 ul of 10× NECA (50 uM stock in PBS) and 10 ul of 10 × Rolipram (50 uM stock in PBS) were added, with designated wells for unstimulated (Rolipram+DMSO) and stimulated (Rolipram+NECA+DMSO) conditions. The plates were mixed well and incubated at room temperature for 30 min on a plate shaker. 1× lyse/Fix buffer (5× stock, BD #558049) was warmed to 37° in a water bath. 1200 ul of pre-warmed 1× lyse/Fix buffer was then added to the plate, which was then sealed and mixed by inverting the plate a few times. The plate was then incubated for 30 min at 37° in a water bath. After incubation, the plate was centrifuged at 1600 rpm for 5 min and the supernatant was decanted, then 1200 ul PBS was added and the plate was mixed by inverting a few times followed by centrifuging at 1600 rpm for 5 min and again decanting the supernatant. Then, 200 ul FIX PERM buffer II (BD #558052) was added and the plate was mixed well, then kept on ice for 45 min After spinning the plate at 1600 rpm for 5 min the supernatant was again decanted. Then was added 200 ul staining buffer (BD #554657), and the plate was mixed well and spun at 1600 rpm for 5 min, then the supernatant was again decanted. 200 ul staining buffer was added, the plate was mixed well and the plate was sealed at this step for storage at 4° overnight or until staining. Before staining, the plate was spun at 1600 rpm for 5 min and the supernatant was again decanted. Antibody mix in staining buffer was prepared (75 ul/well, 1:50 dilution for p-CREB antibody from Cell Signaling Tech #14001S, 1:200 dilution for CD4 antibody from BD #566320) and the cells were resuspended in the above antibody mix solution. After mixing well, the plate was incubated (shielded from light) at room temperature for two hours on a plate shaker. It was then spun at 1600 rpm for 5 min and the supernatant was decanted. 200 ul staining buffer was then added to wash cells, and the plate was then mixed by shaking or pipetting. The wash step was repeated at least one more time, and after the final wash, cells were resusptended in 200 ul staining buffer in U bottom plate for flow cytometry analysis.
A general note: Flow cytometry measures light scatter and fluorescence of single cells or particles in a stream.

The target of another test is Adenosine A2A receptor (Homo sapiens, UniProt P29274). The experiment in a line: cAMP assay in 293A cells stably expressing the adenosine A2A receptor (CGS21680 stimulation, HTRF). Type of test: cell-based. Also on record: expressed in transfected cells; host or cells: 293A cells (Invitrogen, Cat# R705-07) infected with A2A-expressing lentivirus (custom packaged by Biosettia), puromycin selected. The conditions noted are these: 293A-A2AR cells, 0.1% BSA, 1 uM CGS; read-out: cAMP (nM) 0.1% BSA, 1 uM CGS. (In general: Changes in cAMP serve as a functional read-out for many G protein-coupled receptors.)
Chain of Adenosine A2A receptor (P29274 whole entry): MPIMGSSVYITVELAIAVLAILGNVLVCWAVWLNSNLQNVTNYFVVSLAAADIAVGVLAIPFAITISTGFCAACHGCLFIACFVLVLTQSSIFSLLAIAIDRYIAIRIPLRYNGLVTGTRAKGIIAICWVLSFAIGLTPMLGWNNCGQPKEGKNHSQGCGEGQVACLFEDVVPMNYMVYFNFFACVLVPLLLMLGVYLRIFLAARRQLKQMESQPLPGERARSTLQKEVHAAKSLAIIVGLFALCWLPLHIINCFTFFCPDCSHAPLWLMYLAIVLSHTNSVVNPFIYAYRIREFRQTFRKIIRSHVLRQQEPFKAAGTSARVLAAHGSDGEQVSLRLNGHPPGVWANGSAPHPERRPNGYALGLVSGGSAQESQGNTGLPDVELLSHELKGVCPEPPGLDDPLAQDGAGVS

Values joined by “and” are separate entries in the source; they are usually repeats but may differ in a detail not shown here. Identical values can stand only once. Like-named read-outs stand apart in the source and are kept apart here.

In the case of `Cc1cc(-c2c(OCc3cccc(C(C)(C)C#N)n3)nc(N)nc2-c2ccc(F)cc2)cc(C(F)F)n1` [Example 230, 2-(6-(((2-amino-5-(2-(difluoromethyl)-6-methylpyridin-4-yl)-6-(4-fluorophenyl)pyrimidin-4-yl)oxy)methyl)pyridin-2-yl)-2-methylpropanenitrile], the IC50 in test [1] was 37.6 nM; in test [1] (Homo sapiens) it was 32.4 nM; at Adenosine A2A receptor, 7 nM and 40 nM and 64 nM.

Consider `Cc1cc(-c2c(OCc3ncccc3C(C)(C)O)nc(N)nc2-c2ccc(F)cc2)cc(C(F)F)n1` [Example 238], for which the IC50 came to 36.3 nM in test [1] (Homo sapiens) and 313 nM on Adenosine A2A receptor.

Regarding `Cc1cc(-c2c(OCc3nnn(C)n3)nc(N)nc2-c2ccc(F)cc2)cc(C(F)F)n1` [Example 241, 5-(2-(difluoromethyl)-6-methylpyridin-4-yl)-4-(4-fluorophenyl)-6-((2-methyl-2H-tetrazol-5-yl)methoxy)pyrimidin-2-amine], the results for the IC50 (in test [1] (Homo sapiens); at Adenosine A2A receptor) were 221 nM and 213 nM, respectively.

Turning to `Cc1cc(-c2c(OCc3cc(C(C)(C)C#N)ccn3)nc(N)nc2-c2ccc(F)cc2)cc(C(F)F)n1` [Example 257, 2-(2-(((2-amino-5-(2-(difluoromethyl)-6-methylpyridin-4-yl)-6-(4-fluorophenyl)pyrimidin-4-yl)oxy)methyl)pyridin-4-yl)-2-methylpropanenitrile], the IC50 in test [1] (Homo sapiens) is 19 nM; at Adenosine A2A receptor, 250 nM and 171 nM.

Consider `Cc1cc(-c2c(OCc3cccc(C(C)(C)C(=O)O)n3)nc(N)nc2-c2ccc(F)cc2)cc(C(F)F)n1` [Example 263, 2-(6-(((2-amino-5-(2-(difluoromethyl)-6-methylpyridin-4-yl)-6-(4-fluorophenyl)pyrimidin-4-yl)oxy)methyl)pyridin-2-yl)-2-methylpropanoic acid], for which the IC50 in test [1] was 114 nM; in test [1] (Homo sapiens) it was 82 nM; on Adenosine A2A receptor, 33 nM and 168 nM and 95 nM and 126 nM.

In the case of `Cc1cc(-c2c(OCc3cccc(N(C)C)n3)nc(N)nc2-c2ccc(F)cc2)cc(C(F)F)n1` [Example 282, 5-(2-(difluoromethyl)-6-methylpyridin-4-yl)-4-((6-(dimethylamino)pyridin-2-yl)methoxy)-6-(4-fluorophenyl)pyrimidin-2-amine], the IC50 in test [1] (Homo sapiens) is 50 nM; at Adenosine A2A receptor, 90 nM and 21 nM and 100 nM.

For the compound `Cc1cc(-c2c(OC3CCn4ccnc43)nc(N)nc2-c2ccc(F)cc2)cc(C(F)F)n1` (stereo not shown) [Example 284, 5-(2-(difluoromethyl)-6-methylpyridin-4-yl)-4-((6,7-dihydro-5H-pyrrolo[1,2-a]imidazol-7-yl)oxy)-6-(4-fluorophenyl)pyrimidin-2-amine], the IC50 was 392 nM in test [1] (Homo sapiens); 382 nM and 289 nM at Adenosine A2A receptor.

As to `Cc1cc(-c2c(OCc3ccnnc3)nc(N)nc2-c2ccc(F)cc2)cc(C(F)F)n1` [Example 285, 5-(2-(difluoromethyl)-6-methylpyridin-4-yl)-4-(4-fluorophenyl)-6-(pyridazin-4-ylmethoxy)pyrimidin-2-amine], the IC50 is 179 nM in test [1] (Homo sapiens); 378 nM and 272 nM on Adenosine A2A receptor.

On to `Cc1cc(-c2c(OCc3ccnc(OCCO)n3)nc(N)nc2-c2ccc(F)cc2)cc(C(F)F)n1` [Example 297, 2-((4-(((2-amino-5-(2-(difluoromethyl)-6-methylpyridin-4-yl)-6-(4-fluorophenyl)pyrimidin-4-yl)oxy)methyl)pyrimidin-2-yl)oxy)ethan-1-ol], for which the IC50 is 521 nM in test [1] (Homo sapiens); 278 nM and 228 nM at Adenosine A2A receptor.

`Cc1cc(-c2c(OCc3cccc(OCCO)n3)nc(N)nc2-c2ccc(F)cc2)cc(C(F)F)n1` [Example 305]: the results for the IC50 (in test [1] (Homo sapiens); at Adenosine A2A receptor) were 61.7 nM and 196 nM, respectively.

Turning to `Cc1cc(-c2c(OCc3nccn3C(F)F)nc(N)nc2-c2ccc(F)cc2)cc(C(F)F)n1` [Example 306, 4-((1-(difluoromethyl)-1H-imidazol-2-yl)methoxy)-5-(2-(difluoromethyl)-6-methylpyridin-4-yl)-6-(4-fluorophenyl)pyrimidin-2-amine], the IC50 in test [1] (Homo sapiens) was 6.9 nM; on Adenosine A2A receptor, 26 nM and 23 nM.

For the compound `Cc1cc(-c2c(OCCc3ccccn3)nc(N)nc2-c2ccc(F)cc2)cc(C(F)F)n1` [Example 313, 5-(2-(difluoromethyl)-6-methylpyridin-4-yl)-4-(4-fluorophenyl)-6-(2-(pyridin-2-yl)ethoxy)pyrimidin-2-amine], the IC50 in test [1] (Homo sapiens) was 71.5 nM; on Adenosine A2A receptor it was 20 nM and 64 nM.

As to `Cc1cc(-c2c(OCc3nc4ccccc4n3C)nc(N)nc2-c2ccc(F)cc2)cc(C(F)F)n1` [Example 314, 5-(2-(difluoromethyl)-6-methylpyridin-4-yl)-4-(4-fluorophenyl)-6-((1-methyl-1H-benzo[d]imidazol-2-yl)methoxy)pyrimidin-2-amine], the IC50 in test [1] (Homo sapiens) is 9.8 nM; on Adenosine A2A receptor it was 0.4 nM and 1 nM.

Turning to `CCn1c(COc2nc(N)nc(-c3ccc(F)cc3)c2-c2cc(C)nc(C(F)F)c2)nc2ccccc21` [Example 315, 5-(2-(difluoromethyl)-6-methylpyridin-4-yl)-4-((1-ethyl-1H-benzo[d]imidazol-2-yl)methoxy)-6-(4-fluorophenyl)pyrimidin-2-amine], the IC50 in test [1] (Homo sapiens) is 24.8 nM; at Adenosine A2A receptor, 1.8 nM and 15 nM.

Consider `Cc1cc(-c2c(OCCN(C)c3cccc(C(C)(C)C#N)n3)nc(N)nc2-c2ccc(F)cc2)cc(C(F)F)n1` [Example 320], for which the IC50 is 141 nM in test [1] (Homo sapiens); 13 nM and 26 nM and 8.7 nM at Adenosine A2A receptor.

With `Cc1cc(-c2c(OCc3cccc(C4CC4)n3)nc(N)nc2-c2ccc(F)cc2)cc(C(F)F)n1` [Example 326, 4-((6-cyclopropylpyridin-2-yl)methoxy)-5-(2-(difluoromethyl)-6-methylpyridin-4-yl)-6-(4-fluorophenyl)pyrimidin-2-amine], the IC50 was 57.1 nM in test [1] (Homo sapiens); 90 nM and 144 nM and 84 nM on Adenosine A2A receptor.

On to `CCn1c(COc2nc(N)nc(-c3ccc(F)cc3)c2-c2cc(C)nc(C(F)F)c2)nc2cccnc21` [Example 329, 5-(2-(difluoromethyl)-6-methylpyridin-4-yl)-4-((3-ethyl-3H-imidazo[4,5-b]pyridin-2-yl)methoxy)-6-(4-fluorophenyl)pyrimidin-2-amine], for which the IC50 in test [1] (Homo sapiens) was 128 nM; at Adenosine A2A receptor, 87 nM and 249 nM and 153 nM.

Regarding `Cc1cc(-c2c(OCCN(C)c3cccc(C(C)(C)C(=O)O)n3)nc(N)nc2-c2ccc(F)cc2)cc(C(F)F)n1` [Example 339, 2-(6-((2-((2-amino-5-(2-(difluoromethyl)-6-methylpyridin-4-yl)-6-(4-fluorophenyl)pyrimidin-4-yl)oxy)ethyl)(methyl)amino)pyridin-2-yl)-2-methylpropanoic acid], the IC50 was 166 nM in test [1] (Homo sapiens); 561 nM and 795 nM and 230 nM at Adenosine A2A receptor.

`Cc1cc(-c2c(OCCc3cccc(C(C)(C)O)n3)nc(N)nc2-c2ccc(F)cc2)cc(C(F)F)n1` [Example 349, 2-(6-(2-((2-amino-5-(2-(difluoromethyl)-6-methylpyridin-4-yl)-6-(4-fluorophenyl)pyrimidin-4-yl)oxy)ethyl)pyridin-2-yl)propan-2-ol]: the IC50 was 55 nM in test [1] (Homo sapiens); 261 nM and 120 nM at Adenosine A2A receptor.

As to `Cc1cc(-c2c(OCc3nccs3)nc(N)nc2-c2ccc(F)cc2)cc(C(F)F)n1` [Example 350, 5-(2-(difluoromethyl)-6-methylpyridin-4-yl)-4-(4-fluorophenyl)-6-(thiazol-2-ylmethoxy)pyrimidin-2-amine], the IC50 in test [1] (Homo sapiens) was 4 nM; on Adenosine A2A receptor it was 26.1 nM and 5.9 nM and 30 nM.

Take `Cc1cc(-c2c(OCc3nc4ccccc4n3C(F)F)nc(N)nc2-c2ccc(F)cc2)cc(C(F)F)n1` [Example 355, 4-((1-(difluoromethyl)-1H-benzo[d]imidazol-2-yl)methoxy)-5-(2-(difluoromethyl)-6-methylpyridin-4-yl)-6-(4-fluorophenyl)pyrimidin-2-amine]: the IC50 in test [1] (Homo sapiens) was 5.7 nM; on Adenosine A2A receptor, 10.2 nM and 11 nM and 13 nM.

For the compound `Cc1cc(-c2c(OCCN(C)c3nccc(C(C)(C)C(=O)O)n3)nc(N)nc2-c2ccc(F)cc2)cc(C(F)F)n1` [Example 373, 2-(2-((2-((2-amino-5-(2-(difluoromethyl)-6-methylpyridin-4-yl)-6-(4-fluorophenyl)pyrimidin-4-yl)oxy)ethyl)(methyl)amino)pyrimidin-4-yl)-2-methylpropanoic acid], the IC50 in test [1] (Homo sapiens) was 421 nM; on Adenosine A2A receptor, 240 nM and 248 nM and 387 nM and 191 nM.
